This note sets out measurements from US20040087597A1, “Preventives and remedies for complications of diabetes” (priority 2000, published 2004).

Assay [1] relates to aortic smooth muscle cells of rats. Kind of assay: Secretion of osteopontin protein into conditioned medium from aortic smooth muscle cells of rats (Western blotting). Type of assay: cell-based, rat. Particulars: normal glucose; pitavastatin calcium 0.03 and 0.3 μM, atorvastatin 0.3 and 3 μM; 48 hours; FIG. 1. How it is done: The effect of pitavastatin calcium and atorvastatin on the secretion of osteopontin protein into the conditioned culture medium from aortic smooth muscle cells of rats cultured under the normal glucose concentration were measured according to the method described below.
At first, aortic smooth muscle cells of rats (5 to 10 passage culture) were seeded in a 6-well culture plate and the confluent cultures were attained by culturing in low glucose (1000 mg/L) Dulbecco's modified Eagle's medium (DMEM) with 10% fetal bovine serum (FBS: BioWhittaker Co. Ltd.) under 5% CO2 atmosphere at 37° C. […]
After centrifugation, sedimented DE52 gels were washed several times with the same buffer, and 60 μL of 0.2M Tris hydrochloride buffer solution (pH 6.8) containing 5% of 2-mercaptoethanol, 4% of SDS, […], 20% of glycerol and 0.01% of bromophenol blue was added, and heat-treated for 5 minutes at 95° C. […] Chemiluminescences were detected on X-ray film using ECL™ (Amersham Pharmacia Biotech Co. Ltd.). The density of the bands were analyzed according to NIH Image. […]
The density of osteopontin protein measured with NIH Image Analysis for various concentration of pitavastatin calcium are shown in FIG. 1(a), and the density of osteopontin protein measured with NIH Image Analysis for various concentration of atorvastatin are shown in FIG. 1(b).

In the next assay the test system is osteopontin mRNA. Kind of assay: Expression of osteopontin mRNA in the kidney and blood vessels of STZ-induced diabetic rats and normal rats (Northern blotting). In kind it is in vivo, rat. Particulars: for Kidney OPNmRNA/18S / Aorta OPNmRNA/18S / Aorta % Inhibition / Kidney % Inhibition: oral 3 mg/kg once a day, 7 days; for Kidney OPNmRNA/18S / Aorta OPNmRNA/18S: mean ± standard deviation, 3 mg/kg. How it is done: The effects of pitavastatin calcium on the expression of osteopontin mRNA in the kidney and blood vessels of STZ-induced diabetic rats were investigated according to the method described below.
Namely, 35 mg per kg of body weight of STZ dissolved in the concentration of 50 mg/mL of physiological saline was injected into the tail vein of male Wistar rats (body weight: about 300 g), and the animals were orally administered 1 mL/kg of body weight of 0.5% carboxymethylcellulose solution containing the test drug (pitavastatin calcium) in the concentration of 3mg/mL with a gastric sonde. Thereafter the oral administration was performed once a day by same volume and at fixed time during the experiment. The same volume of only 0.5% carboxymethylcellulose was given by the forced oral administration for the control group. The venous blood was withdrawn from the tail vein on the second day of the experiment and the presence of 200 mg/dL or above of the blood sugar level was confirmed.
24 hours after 7 days administration, the blood was withdrawn under the ether anesthesia, and kidneys and thoracic aorta were isolated. The predetermined amount of the tissue piece in ISOGEN (Wako Pure Chemicals K.K.) was homogenized in a polytron homogenizer and the total RNA was extracted. The total RNA thus obtained was precipitated by using isopropanol. The precipitate was washed with 70% ice cold ethanol and stored at −80° C. in 70% ethanol.
Osteopontin mRNA in the total RNA obtained was detected by the conventional Northern blotting method. That is to say that the total RNA precipitated with 70% ethanol was subjected to centrifugation at 15000 rpm, the precipitate was dried at room temperature after decanting the supernatant and dissolved in a small amount of TE buffer (10 mM Tris-HCl buffer-1 mM EDTA solution). 10 μL out of the solution thus obtained was diluted with 990 μL of TE buffer solution, and the amount of RNA was calculated by measuring the absorbance at 260 nm ultraviolet light of the solution. 40% solution of deionized glyoxal (3.5 μL), 0.1 M of NaHPO4 buffer solution (2.4 μL) and dimethylsulfoxide (11.8 μL) were added to the predetermined amount (10 or 20 μg) of the total RNA (final volume: 6 μL), heated at 50° C. for 1 hour and the total RNA was denatured. 6.3 μL of 10 mM sodium phosphate buffer solution (pH: 6.8) containing 50% glycerol and 0.4% bromophenol blue was added to the solution after the solution was cooled to the room temperature, and then RNA was subjected to electrophoresis using 1.5% agarose gel. RNA was blotted from agarose to nylon membrane in a conventional fashion by using 20×saline-sodium citrate (SSC). The blotted nylon membrane was washed with 2×SSC, and RNA was fixed on the nylon membrane by heating it to 80° C. in vacuo. DNA fragment encoding osteopontin was digested from pCRIIrOP vector with Eco R1 endonuclease and purified with Probe Quant™G-50 Micro Columns (Amersham Pharmacia Biotech Co. Ltd.). DNA fragment encoding Osteopontin thus obtained was hybridized for overnight together with the nylon membrane at 65° C. with Rediprime™ II (Amersham Pharmacia Biotech Co. Ltd.) radioactive probe labeled with ^32P radioisotope. Radioisotope level of the probe bound to the nylon membrane was detected on the X-ray film and the density of the bands were analyzed according to NIH Image. […] was used as the RNA internal standard and the amount of the expression was represented with the comparative intensities of the density of the bands. Osteopontin mRNA was similarly measured in the normal rat experiment.
In Table 1, OPN mRNA/18S represents the ratio of the density of osteopontin mRNA to the density of […] based on the NIH Image Analysis and % inhibition represents that to the respective control groups. The values of OPNmRNA/18S are mean ± standard deviation.

For assay [2], the system named is aortic smooth muscle cells of rats. Kind of assay: Expression of osteopontin mRNA in aortic smooth muscle cells of rats, with or without mevalonic acid (northern blotting). Type of assay: cell-based, rat. Particulars: FIG. 2(a). How it is done: (§1) The effect of mevalonic acid on the suppression with pitavastatin calcium for the expression of osteopontin mRNA and the secretion of osteopontin protein in aortic smooth muscle cells of rats were measured according to the method described below.
(§2) Aortic smooth muscle cells of rats (5 to 10 passage culture) were seeded in a 6-well culture plate and the confluent cultures were attained by culturing in low glucose (1000 mg/L) DMEM with 10% FBS under 5% CO2 atmosphere at 37° C. Thereafter, the medium was replaced with the medium with pitavastatin calcium (8 μM) and/or mevalonic acid (100 μM), and the cells were cultured for another 48 hours. The medium was again replaced with 1.5 mL of FBS-free medium per well, and the cells were cultured further for 48 hours.
After the cultivation, the cells adhered to the culture plate were homogenized together with ISOGEN, RNA were extracted exactly as in Example 1, and the amount of osteopontin mRNA was analyzed by northern blotting method.
(§3) The above measurements were carried out in the three cases when pitavastatin calcium and mevalonic acid were not added, when only pitavastatin calcium was added, and when both pitavastatin calcium and mevalonic acid were added.

The test system is the same in assay [3]. Kind of assay: Secretion of osteopontin protein from aortic smooth muscle cells of rats, with or without mevalonic acid (western blotting). In kind it is cell-based, rat. Particulars: FIG. 2(b). The procedure:
as §1, §2
At the same time, the conditioned medium was collected, osteopontin protein was absorbed on DE52, subjected to electrophoresis exactly as in Example 2, and the amount of the secreted osteopontin protein was analyzed by western blotting method.
as §3

Setting [4] is: STZ-induced diabetic rats with drug administration, versus diabetic control.
Setting [5] is: healthy rats with drug administration, versus healthy control.
Setting [6] is: rats with drug administration, listed as Pitavastatin calcium.
[7] abbreviates: pitavastatin calcium 8 μM alone, 48 hours.
Setting [8] is: pitavastatin calcium 8 μM with addition of mevalonic acid 100 μM.

Regarding `CC(C)c1c(C(=O)Nc2ccccc2)c(-c2ccccc2)c(-c2ccc(F)cc2)n1CC[C@@H](O)C[C@@H](O)CC(=O)O` [atorvastatin], in assay [1], the “Amount of the secretion of osteopontin protein into the conditioned medium” value was “inhibited with the statistical significance”.
Turning to “(+)-bis{(3R, 5S, 6E)-7-[2-cyclopropyl4-(4-fluorophenyl)-3-quinolyl]-3,5-dihydroxy-6-heptenoic acid}-calcium [pitavastatin calcium]”, the “Kidney OPNmRNA/18S” value in the assay on osteopontin mRNA (STZ-induced diabetic rats with drug administration, p = 0.016 vs control) worked out at 1.933 ± 0.874; in the assay on osteopontin mRNA (STZ-induced diabetic rats with drug administration, p = 0.016 vs control, listed as Pitavastatin calcium) it was 1.933; with osteopontin mRNA (rats with drug administration), 1.667 ± 0.321; in the assay on osteopontin mRNA (setting [6]), 1.667. For the same compound, the “Aorta OPNmRNA/18S” value with osteopontin mRNA (STZ-induced diabetic rats with drug administration, p = 0.036 vs control) turned out to be 1.300; in the assay on osteopontin mRNA (STZ-induced diabetic rats with drug administration, p = 0.036 vs control, listed as Pitavastatin calcium), 1.300; in the assay on osteopontin mRNA (rats with drug administration) it was 2.433 ± 0.929; with osteopontin mRNA (setting [6]), 2.433. Also, the “Aorta % Inhibition” value in the assay on osteopontin mRNA (setting [4]) is recorded as 59.4%; with osteopontin mRNA (setting [5]), −1.4%. Moreover, the entries for the “Kidney % Inhibition” value with osteopontin mRNA (setting [4]) and in the assay on osteopontin mRNA (setting [5]) were 40.2% and −24.1%, respectively. Besides, the “Influence on the expression of osteopontin in the kidney and the aorta” value in the assay on osteopontin mRNA (healthy rats) was “did not influence”. The “Amount of the secretion of osteopontin protein into the conditioned medium” value in assay [1] is on record as “inhibited with the statistical significance”. Also, the “Expression of osteopontin mRNA (ratio to 18S)” value in assay [2] (setting [7]) is “suppresses”. Moreover, in assay [2] (setting [8]), the “Suppressive effect on the expression of osteopontin mRNA” value was “disappear”. In assay [3] (setting [7]), the “Secretion of osteopontin protein” value is “suppresses”. In addition, the “Suppressive effect on the secretion of osteopontin protein” value in assay [3] (setting [8]) was “disappear”.
